Starred links: 1 amine or outer side, 2 acyl side, 3 side chain; linkers in the order of their positions; H or OH if unused. Positions of bridges follow the written chain, without caps; N, C: chain ends. Non-standard residues stand in square brackets, D forms with d. Residues, ends and D or L forms follow the SMILES beside them. Chains are numbered I, II in the order given. Actinocin(9to1) = Cc1c2oc3c(C)ccc(C(=O)[*:1])c3nc-2c(C(=O)[*:2])c(N)c1=O; NMeV = CN[C@H](C(=O)O)C(C)C; Nle = CCCC[C@H](N)C(=O)O; Sar = CNCC(=O)O

The source of these data is patent publication US20060154236A1, “Computer-assisted analysis” (priority 2004, published 2006).

The subject of the assay is HeLa (human cancer) cells. The experiment in a line: Cytological dose-response profiling by automated fluorescence microscopy (KS statistic z-scores, 93 descriptors). The class given is cell-based. Particulars: HeLa cells, 20 hrs, thirteen 3-fold dilutions; Y = profile response above signal threshold. The method, then: The known drug set was chosen to cover common mechanisms of toxicity or therapeutic action in cancer and other diseases, and to include several groups with a common target (macromolecule or pathway) but unrelated structures. We analyzed thirteen 3-fold dilutions of each drug, covering a final concentration range on cells from micromolar to picomolar. (Table 3 and Materials & Methods). HeLa (human cancer) cells were cultured in 384-well plates to near confluence, treated with drugs for 20 hrs, fixed, and stained with fluorescent probes for various cell components and processes. We chose 11 distinct probes that covered a range of cell biology, multiplexing a DNA stain and two antibodies per well (the probe sets are: (SC35, anillin), (α-tubulin, actin), (phospho-p38, phospho-ERK), (p53, cFos), (phospho-CREB, calmodulin)). Using automated fluorescence microscopy, we collected images of up to ˜8000 cells from each well. 26 wells on each plate were treated only with DMSO to generate a control population. The experiment was performed twice in parallel to provide a replicate dataset. Image segmentation procedures were used to automatically identify nuclei and nuclear organelles, and cytoplasmic regions were approximated as an annulus surrounding each identified nucleus (FIG. 31A). For each cell, region, and probe, a set of descriptors was measured. These included measures of size, shape, and intensity, as well as ratios of intensities between regions (93 descriptors total, Table S3).
For profiling studies, it is useful to reduce each population of descriptor values to a single number. […] We devised a measure based on the Kolmogorov-Smirnov (KS) statistic, allowing nonparametric comparison of experimental and control distributions from the same plate (FIGS. 31B and 35). […] In particular, the relationship between z-score and the original physical measure may be non-linear.
Cell culture. 20 hours before compound addition, Hela cells grown in […] dishes were trypsinized, resuspended in DMEM supplemented with 10% FCS and 10 ug/mL penicillin/streptomycin, and plated in 384-well plates at an initial density of 3,000 cells per well, 40 uL per well. Compounds were purchased from Sigma (St. Louis, MO), Calbiochem (EMD Biosciences, San Diego, Calif.) and Tocris (Elliksville, MO) and are listed in Table 2. Compound stocks were prepared in DMSO and then arrayed on 384-well plates in 16 consecutive 1:3 serial dilutions in DMSO as outlined in Table 3. The highest and two lowest dilutions (rows A, 0 and P) were not used for subsequent analysis as the wells due to persistent edge effects, leaving us with a series of 13 dilutions. Each stock was diluted 16-fold in warmed culture medium, and 8 μl of this solution was added to the plated cells, resulting in a 96-fold final dilution. All conditions were performed in duplicate in separate plates. Cells were incubated at 37° C. for 20 hours, then fixed in 3% formaldehyde in PBS. All liquid handling was performed using a programmed TekBench (TekCel, Hopkinton, Mass.).
Markers. Five sets of markers were stained by standard immunofluorescence methods in this study.
As to `COc1cc([C@@H]2c3cc4c(cc3[C@H](O)[C@H]3COC(=O)[C@H]23)OCO4)cc(OC)c1OC` [Compound 44, Podophyllotoxin], the “Used in clustering (FIG. 33)” value is “Y”. As for `CN(C)CCCN1c2ccccc2Sc2ccc(Cl)cc21` [Compound 62, Chloropromazine], the “Used in clustering (FIG. 33)” value is recorded as “Y”. Turning to Oxamflatin [Compound 78], the “Used in clustering (FIG. 33)” value is “Y”. The result for `CN[C@@H]1C[C@H]2O[C@@](C)([C@@H]1OC)n1c3ccccc3c3c4c(c5c6ccccc6n2c5c31)C(=O)NC4` [Compound 51, Staurosporine] reads “Y”; that for `CC[C@]1(O)C[C@@H]2CN(CCc3c([nH]c4ccccc34)[C@@](C(=O)OC)(c3cc4c(cc3OC)N(C)[C@H]3[C@@](O)(C(=O)OC)[C@H](OC(C)=O)[C@]5(CC)C=CCN6CC[C@]43[C@@H]65)C2)C1` [Compound 57, Vinblastine], “Y”.

For `CN1CCN(C2=Nc3cc(Cl)ccc3Nc3ccccc32)CC1` [Compound 64, Clozapine], the “Used in clustering (FIG. 33)” value was “Y”. Tunicamycin [Compound 55]: the “Used in clustering (FIG. 33)” value is on record as “Y”. With `C/C1=C/C(=O)O[C@@H]2C[C@@H](CC[C@H](C)/C=C\CC1)O[C@@](O)([C@@H]1CSC(=O)N1)C2` [Compound 36, Latrunculin B], the “Used in clustering (FIG. 33)” value is recorded as “Y”.

In the case of `CCOC(=O)C1=C(C)NC(=S)NC1c1cccc(O)c1` (stereo not drawn) [Compound 39, Monastrol], the “Used in clustering (FIG. 33)” value is “Y”.

For the compound `COc1ccc(C[C@H](N)C(=O)N[C@H]2[C@@H](O)[C@H](n3cnc4c(N(C)C)ncnc43)O[C@@H]2CO)cc1` [Compound 45, Puromycin], the “Used in clustering (FIG. 33)” value is listed as “Y”. The result for Amanitin [Compound 3] reads “Y”; that for `O=C1Nc2ccccc2/C1=C1/Nc2ccccc2/C1=N\O` [Compound 32, Indirubin monoxime], “Y”; that for `C/C1=C\[C@H](C)C[C@H](C)OC(=O)C[C@H](c2ccc(O)cc2)NC(=O)[C@@H](Cc2c(Br)[nH]c3ccccc23)N(C)C(=O)[C@H](C)NC(=O)[C@@H](C)C1` [Compound 34, Jasplakinolide], “Y”. Under `COc1cccc2c1C(=O)c1c(O)c3c(c(O)c1C2=O)C[C@@](O)(C(=O)CO)C[C@@H]3O[C@H]1C[C@H](N)[C@H](O)[C@H](C)O1` [Compound 20, Doxorubicin] stands “Y”; under `C[S+]([O-])c1ccc(-c2nc(-c3ccncc3)c(-c3ccc(F)cc3)[nH]2)cc1` (stereo not drawn) [Compound 80, SB203580], “Y”. As for `CCC(C)(C)C(=O)O[C@H]1C[C@@H](C)C=C2C=C[C@H](C)[C@H](CC[C@@H]3C[C@@H](O)CC(=O)O3)[C@H]21` [Compound 70, Simavastatin], the “Used in clustering (FIG. 33)” value is reported as “Y”.

Regarding `O=C1Cc2c([nH]c3ccc([N+](=O)[O-])cc23)-c2ccccc2N1` [Compound 6, Alsterpaullone], the “Used in clustering (FIG. 33)” value is “Y”.

As for `CC1=C(/C=C/C(C)=C/C=C/C(C)=C/C(=O)O)C(C)(C)CCC1` [Compound 48, Retinoic acid (trans)], the “Used in clustering (FIG. 33)” value is “Y”. The result for `C[C@@]1(CO)[C@H](O)CC[C@@]2(C)[C@H]1CC[C@H]1C[C@@H]3C[C@@]12CC[C@]3(O)CO` [Compound 81, Aphidicolin] reads “Y”.

With `C[C@@H]1C[C@H]2[C@@H]3CCC4=CC(=O)C=C[C@]4(C)[C@@]3(F)[C@@H](O)C[C@]2(C)[C@@]1(O)C(=O)CO` [Compound 19, Dexamethasone], the “Used in clustering (FIG. 33)” value was “Y”.

Take `COC(=O)Nc1nc2ccc(C(=O)c3cccs3)cc2[nH]1` [Compound 91, Nocodazole]: the “Used in clustering (FIG. 33)” value is given as “Y”. Regarding `COc1ccc(C[C@H]2NC[C@H](O)[C@H]2OC(C)=O)cc1` [Compound 7, Anisomycin], the “Used in clustering (FIG. 33)” value is “Y”.

In the case of `CCC(=O)CCCCC[C@@H]1NC(=O)[C@H]2CCCCN2C(=O)[C@H]([C@@H](C)CC)NC(=O)[C@H](Cc2cn(OC)c3ccccc23)NC1=O` [Compound 76, Apicidin], the “Used in clustering (FIG. 33)” value is on record as “Y”. Under `NS(=O)(=O)c1ccc(-n2nc(C(F)(F)F)cc2-c2ccc(Cl)cc2)cc1` [Compound 79, SC236] stands “Y”; under `COc1cccc(-c2cc(=O)c3ccccc3o2)c1N` [Compound 63, PD98059], “Y”; under `CC[C@H](C)C(=O)O[C@H]1CCC=C2C=C[C@H](C)[C@H](CC[C@@H]3C[C@@H](O)CC(=O)O3)[C@H]21` [Compound 37, Mevastatin], “Y”.

With `C[C@@H]1C[C@@H]([C@H](O)CC2CC(=O)NC(=O)C2)C(=O)[C@@H](C)C1` [Compound 14, Cycloheximide], the “Used in clustering (FIG. 33)” value is listed as “Y”. Under `Cc1cc(O)c2c(c1)C(=O)c1cc(O)cc(O)c1C2=O` [Compound 22, Emodin] stands “Y”; under `C=C1[C@@H](C)[C@H]2[C@H](Cc3ccccc3)NC(=O)[C@]23[C@H](OC(C)=O)/C=C/[C@@](C)(O)C(=O)[C@@H](C)C/C=C/[C@H]3[C@@H]1O` [Compound 16, Cytochalasin D], “Y”.

For `CCCCCCCCCCCCCC(=O)O[C@@H]1[C@@H](C)[C@@]2(O)[C@@H](C=C(CO)C[C@]3(O)C(=O)C(C)=C[C@@H]23)[C@@H]2C(C)(C)[C@]12OC(C)=O` [Compound 43, PMA], the “Used in clustering (FIG. 33)” value is on record as “Y”.

As for `CNc1ccc2oc(C[C@H]3O[C@@]4(CC[C@H]3C)O[C@H]([C@H](C)C(=O)c3ccc[nH]3)[C@H](C)C[C@H]4C)nc2c1C(=O)O` [Compound 2, A23187 free acid], the “Used in clustering (FIG. 33)” value is recorded as “Y”. The result for `CC(=O)O[C@H]1C(=O)[C@@]2(C)[C@H]([C@H](OC(=O)c3ccccc3)[C@]3(O)C[C@H](OC(=O)[C@H](O)[C@@H](NC(=O)c4ccccc4)c4ccccc4)C(C)=C1C3(C)C)[C@]1(OC(C)=O)CO[C@@H]1C[C@@H]2O` [Compound 53, Taxol] reads “Y”; that for `CC(/C=C/C(=O)NO)=C\[C@@H](C)C(=O)c1ccc(N(C)C)cc1` [Compound 54, Trichostatin], “Y”. `C=C1[C@@H](O)[C@@H]2O[C@]3(CC[C@H](/C=C/[C@@H](C)[C@@H]4CC(C)=C[C@@]5(O[C@H](C[C@@](C)(O)C(=O)O)CC[C@H]5O)O4)O3)CC[C@H]2O[C@@H]1[C@@H](O)C[C@H](C)[C@H]1O[C@@]2(CCCCO2)CC[C@H]1C` [Compound 41, Okadaic acid]: the “Used in clustering (FIG. 33)” value was “Y”.

As to `Cc1c2oc3c(C)ccc(C(=O)N[C@@H]4C(=O)N[C@H](C(C)C)C(=O)N5CCC[C@H]5C(=O)N(C)CC(=O)N(C)[C@@H](C(C)C)C(=O)O[C@@H]4C)c3nc-2c(C(=O)N[C@@H]2C(=O)N[C@H](C(C)C)C(=O)N3CCC[C@H]3C(=O)N(C)CC(=O)N(C)[C@@H](C(C)C)C(=O)O[C@@H]2C)c(N)c1=O` [Compound 4, Actinomycin D] (I: T[dV]P[Sar][NMeV] / II: T[dV]P[Sar][NMeV]; ester I:1-I:C, II:1-II:C; linker I:N-II:N via Actinocin(9to1)), the “Used in clustering (FIG. 33)” value is “Y”. Under `CCCC[C@@H](C=O)NC(=O)[C@H](CC(C)C)NC(=O)[C@H](CC(C)C)NC(C)=O` [Compound 5, N-acetyl-Leu-Leu-norleucinal] (Ac-Leu-Leu-[Nle]-aldehyde) stands “Y”.
